In patent US20250332178A1, “METHODS OF TREATING MYCOBACTERIAL INFECTIONS USING TETRACYCLINE COMPOUNDS” (priority 2018, published 2025):
Where two headings read alike, the source gives them in different places.

What was measured:
M. simiae = experiment: MIC (CLSI broth dilution), slow-growing NTM isolates; format: cell-based; details: read-out: MIC
M. arupense = experiment: as above; format: cell-based; details: isolate 11, Other; read-out: MIC
M. abscessus complex = experiment: MIC (CLSI broth dilution), RGM isolates; format: cell-based
M. fortuitum group = experiment: MIC (CLSI broth dilution), RGM isolates; format: cell-based
M. smegmatis group = experiment: MIC (CLSI broth dilution), RGM isolates; format: cell-based
[1] = tested on: rapid-growing mycobacteria (RGM) isolates; experiment: MIC (CLSI broth dilution), all RGM isolates; format: cell-based, nontuberculous mycobacteria; details: all 50 RGM isolates
M. chelonae = experiment: MIC (CLSI broth dilution), RGM isolates; format: cell-based
M. immunogenum group = experiment: MIC (CLSI broth dilution), RGM isolates; format: cell-based; details: M. immunogenum
M. mucogenium group = experiment: MIC (CLSI broth dilution), RGM isolates; format: cell-based

CO[C@H]1/C=C/O[C@@]2(C)Oc3c(C)c(O)c4c(O)c(c(/C=N/N5CCN(C)CC5)c(O)c4c3C2=O)NC(=O)/C(C)=C\C=C\[C@H](C)[C@H](O)[C@@H](C)[C@@H](O)[C@@H](C)[C@H](OC(C)=O)[C@@H]1C [RIF, rifampin]
> 2 µg/mL: MIC (M. simiae; isolate 13, Other) | MIC (M. simiae; isolate 14, Other) | MIC (M. simiae; isolate 15, Other) | MIC (M. arupense)

CO[C@H]1/C=C/O[C@@]2(C)Oc3c(C)c(O)c4c(c3C2=O)C2=NC3(CCN(CC(C)C)CC3)NC2=C(NC(=O)/C(C)=C\C=C\[C@H](C)[C@H](O)[C@@H](C)[C@@H](O)[C@@H](C)[C@H](OC(C)=O)[C@@H]1C)C4=O [RFB, rifabutin]
≤ 0.25 µg/mL: MIC (M. simiae; isolate 13, Other) | MIC (M. arupense)
> 2 µg/mL: MIC (M. simiae; isolate 14, Other) | MIC (M. simiae; isolate 15, Other)

CO[C@@]1(NC(=O)Cc2cccs2)C(=O)N2C(C(=O)O)=C(COC(N)=O)CS[C@@H]21 [FOX, cefoxitin]
32 µg/mL: MIC (M. abscessus complex; Mycobacteroides abscessus, isolate 1, M. abscessus complex, erm gene type MAB30, read-out: MIC) | MIC (M. abscessus complex; Mycobacteroides abscessus, isolate 2, M. abscessus complex, erm gene type MAB30, read-out: MIC) | MIC (M. abscessus complex; Mycobacteroides abscessus, isolate 3, M. abscessus complex, erm gene type MAB30, read-out: MIC) | MIC (M. abscessus complex; Mycobacteroides abscessus, isolate 4, M. abscessus complex, erm gene type massiliense, read-out: MIC) | MIC (M. abscessus complex; Mycobacteroides abscessus, isolate 5, M. abscessus complex, erm gene type massiliense/subsp. abs hybrid, read-out: MIC) | MIC (M. abscessus complex; Mycobacteroides abscessus, isolate 6, M. abscessus complex, erm gene type Type 1 abscessus, read-out: MIC) | MIC (M. abscessus complex; Mycobacteroides abscessus, isolate 7, M. abscessus complex, erm gene type Type 1 abscessus, read-out: MIC) | MIC (M. abscessus complex; Mycobacteroides abscessus, isolate 8, M. abscessus complex, erm gene type Type 1 abscessus, read-out: MIC) | MIC (M. abscessus complex; Mycobacteroides abscessus, isolate 9, M. abscessus complex, erm gene type Type 1 abscessus, read-out: MIC) | MIC (M. abscessus complex; Mycobacteroides abscessus, isolate 10, M. abscessus complex, erm gene type Type 1 abscessus, read-out: MIC) | MIC (M. abscessus complex; Mycobacteroides abscessus, isolate 11, M. abscessus complex, erm gene type Type 6 abscessus, read-out: MIC) | MIC (M. abscessus complex; Mycobacteroides abscessus, isolate 12, M. abscessus complex, erm gene type Type 6 abscessus, read-out: MIC) | MIC (M. abscessus complex; Mycobacteroides abscessus, isolate 13, M. abscessus complex, erm gene type Type 6 abscessus, read-out: MIC) | MIC (M. abscessus complex; Mycobacteroides abscessus, isolate 15, M. abscessus complex, erm gene type Type 7 abscessus, read-out: MIC) | MIC (M. abscessus complex; Mycobacteroides abscessus, isolate 16, M. abscessus complex, erm gene type Type 7 abscessus, read-out: MIC) | MIC (M. abscessus complex; Mycobacteroides abscessus, isolate 17, M. abscessus complex, erm gene type Type 8 abscessus, read-out: MIC) | MIC (M. fortuitum group; Mycolicibacterium fortuitum, isolate 23, M. fortuitum group, M. fortuitum, read-out: MIC) | MIC (M. fortuitum group; Mycolicibacterium fortuitum, isolate 25, M. fortuitum group, M. fortuitum, read-out: MIC) | MIC (M. fortuitum group; Mycolicibacterium fortuitum, isolate 26, M. fortuitum group, M. porcinum, read-out: MIC) | MIC (M. fortuitum group; Mycolicibacterium fortuitum, isolate 27, M. fortuitum group, M. porcinum, read-out: MIC) | MIC (M. fortuitum group; Mycolicibacterium fortuitum, isolate 28, M. fortuitum group, M. porcinum/M. boenickei, read-out: MIC) | MIC (M. fortuitum group; Mycolicibacterium fortuitum, isolate 29, M. fortuitum group, M. porcinum/M. boenickei, read-out: MIC) | MIC (M. fortuitum group; Mycolicibacterium fortuitum, isolate 31, M. fortuitum group, M. senegalense, read-out: MIC) | MIC (M. fortuitum group; Mycolicibacterium fortuitum, isolate 32, M. fortuitum group, M. senegalense, read-out: MIC) | MIC (M. fortuitum group; Mycolicibacterium fortuitum, isolate 34, M. fortuitum group, M. senegalense, read-out: MIC) | MIC50 ([1]; read-out: MIC50)
≤ 16 µg/mL: MIC (M. fortuitum group; Mycolicibacterium fortuitum, isolate 30, M. fortuitum group, M. porcinum/M. boenickei, read-out: MIC) | MIC (M. mucogenium group; isolate 39, M. mucogenicum group, M. mucogenicum, read-out: MIC) | MIC (M. mucogenium group; isolate 40, M. mucogenicum group, M. mucogenicum, read-out: MIC) | MIC (M. mucogenium group; isolate 41, M. mucogenicum group, M. mucogenicum, read-out: MIC) | MIC (M. mucogenium group; isolate 42, M. mucogenicum group, M. mucogenicum, read-out: MIC) | MIC (M. mucogenium group; isolate 43, M. mucogenicum group, M. phocaicum, read-out: MIC) | MIC (M. mucogenium group; isolate 44, M. mucogenicum group, M. phocaicum, read-out: MIC) | MIC (M. mucogenium group; isolate 45, M. mucogenicum group, M. phocaicum, read-out: MIC) | MIC (M. mucogenium group; isolate 46, M. mucogenicum group, M. phocaicum, read-out: MIC) | MIC (M. mucogenium group; isolate 47, M. mucogenicum group, M. phocaicum, read-out: MIC) | MIC (M. mucogenium group; isolate 48, M. mucogenicum group, M. phocaicum, read-out: MIC)
64 µg/mL: MIC (M. abscessus complex; Mycobacteroides abscessus, isolate 14, M. abscessus complex, erm gene type Type 6 abscessus, read-out: MIC) | MIC (M. smegmatis group; Mycolicibacterium smegmatis, isolate 50, M. smegmatis group, M. wolinskyi, read-out: MIC)
< 16 µg/mL: MIC (M. fortuitum group; Mycolicibacterium fortuitum, isolate 33, M. fortuitum group, M. senegalense, read-out: MIC)
> 64 µg/mL: MIC (M. fortuitum group; Mycolicibacterium fortuitum, isolate 24, M. fortuitum group, M. fortuitum, read-out: MIC) | MIC (M. smegmatis group; Mycolicibacterium smegmatis, isolate 49, M. smegmatis group, M. goodii, read-out: MIC) | MIC90 ([1]; read-out: MIC90) | MIC (M. chelonae; Mycobacteroides chelonae, isolate 18, M. chelonae, read-out: MIC) | MIC (M. chelonae; Mycobacteroides chelonae, isolate 19, M. chelonae, read-out: MIC) | MIC (M. chelonae; Mycobacteroides chelonae, isolate 20, M. chelonae, read-out: MIC) | MIC (M. chelonae; Mycobacteroides chelonae, isolate 21, M. chelonae, read-out: MIC) | MIC (M. chelonae; Mycobacteroides chelonae, isolate 22, M. chelonae, read-out: MIC) | MIC (M. immunogenum group; isolate 35, M. immunogenum group, read-out: MIC) | MIC (M. immunogenum group; isolate 36, M. immunogenum group, read-out: MIC) | MIC (M. immunogenum group; isolate 37, M. immunogenum group, read-out: MIC) | MIC (M. immunogenum group; isolate 38, M. immunogenum group, read-out: MIC)

C[C@@H](O)[C@H]1C(=O)N2C(C(=O)O)=C(SCCN=CN)C[C@H]12 [IPM, imipenem]
32 µg/mL: MIC (M. chelonae; isolate 21, M. chelonae) | MIC (M. immunogenum group; isolate 36, M. immunogenum group) | MIC (M. immunogenum group; isolate 38, M. immunogenum group)
16 µg/mL: MIC (M. abscessus complex; isolate 2, M. abscessus complex, erm gene type MAB30) | MIC (M. abscessus complex; isolate 5, M. abscessus complex, erm gene type massiliense/subsp. abs hybrid) | MIC (M. abscessus complex; isolate 9, M. abscessus complex, erm gene type Type 1 abscessus) | MIC (M. abscessus complex; isolate 10, M. abscessus complex, erm gene type Type 1 abscessus) | MIC (M. abscessus complex; isolate 12, M. abscessus complex, erm gene type Type 6 abscessus) | MIC90 [1] | MIC (M. chelonae; isolate 18, M. chelonae) | MIC (M. chelonae; isolate 19, M. chelonae) | MIC (M. chelonae; isolate 20, M. chelonae) | MIC (M. chelonae; isolate 22, M. chelonae) | MIC (M. immunogenum group; isolate 35, M. immunogenum group) | MIC (M. immunogenum group; isolate 37, M. immunogenum group)
≤2 µg/mL: MIC (M. fortuitum group; isolate 23, M. fortuitum group, M. fortuitum) | MIC (M. fortuitum group; isolate 25, M. fortuitum group, M. fortuitum) | MIC (M. fortuitum group; isolate 26, M. fortuitum group, M. porcinum) | MIC (M. fortuitum group; isolate 30, M. fortuitum group, M. porcinum/M. boenickei) | MIC (M. fortuitum group; isolate 31, M. fortuitum group, M. senegalense) | MIC (M. fortuitum group; isolate 32, M. fortuitum group, M. senegalense) | MIC (M. fortuitum group; isolate 33, M. fortuitum group, M. senegalense) | MIC (M. fortuitum group; isolate 34, M. fortuitum group, M. senegalense) | MIC (M. mucogenium group; isolate 39, M. mucogenicum group, M. mucogenicum) | MIC (M. mucogenium group; isolate 40, M. mucogenicum group, M. mucogenicum) | MIC (M. mucogenium group; isolate 41, M. mucogenicum group, M. mucogenicum) | MIC (M. mucogenium group; isolate 42, M. mucogenicum group, M. mucogenicum) | MIC (M. mucogenium group; isolate 43, M. mucogenicum group, M. phocaicum) | MIC (M. mucogenium group; isolate 44, M. mucogenicum group, M. phocaicum) | MIC (M. mucogenium group; isolate 45, M. mucogenicum group, M. phocaicum) | MIC (M. mucogenium group; isolate 46, M. mucogenicum group, M. phocaicum) | MIC (M. mucogenium group; isolate 47, M. mucogenicum group, M. phocaicum) | MIC (M. mucogenium group; isolate 48, M. mucogenicum group, M. phocaicum)
4 µg/mL: MIC (M. fortuitum group; isolate 24, M. fortuitum group, M. fortuitum) | MIC (M. fortuitum group; isolate 27, M. fortuitum group, M. porcinum) | MIC (M. fortuitum group; isolate 29, M. fortuitum group, M. porcinum/M. boenickei) | MIC (M. smegmatis group; isolate 49, M. smegmatis group, M. goodii) | MIC (M. smegmatis group; isolate 50, M. smegmatis group, M. wolinskyi)
8 µg/mL: MIC (M. abscessus complex; isolate 1, M. abscessus complex, erm gene type MAB30) | MIC (M. abscessus complex; isolate 3, M. abscessus complex, erm gene type MAB30) | MIC (M. abscessus complex; isolate 4, M. abscessus complex, erm gene type massiliense) | MIC (M. abscessus complex; isolate 6, M. abscessus complex, erm gene type Type 1 abscessus) | MIC (M. abscessus complex; isolate 7, M. abscessus complex, erm gene type Type 1 abscessus) | MIC (M. abscessus complex; isolate 8, M. abscessus complex, erm gene type Type 1 abscessus) | MIC (M. abscessus complex; isolate 11, M. abscessus complex, erm gene type Type 6 abscessus) | MIC (M. abscessus complex; isolate 13, M. abscessus complex, erm gene type Type 6 abscessus) | MIC (M. abscessus complex; isolate 14, M. abscessus complex, erm gene type Type 6 abscessus) | MIC (M. abscessus complex; isolate 15, M. abscessus complex, erm gene type Type 7 abscessus) | MIC (M. abscessus complex; isolate 16, M. abscessus complex, erm gene type Type 7 abscessus) | MIC (M. abscessus complex; isolate 17, M. abscessus complex, erm gene type Type 8 abscessus) | MIC (M. fortuitum group; isolate 28, M. fortuitum group, M. porcinum/M. boenickei) | MIC50 [1]
